According to the supplement of paper PMC8837787:

Tested on: Saccharomyces cerevisiae ABC16-Green Monster
Assay: growth inhibition at single dose (up to 150 µM), below the 70% cut-off for dose-response; higher = more potent
Details: 18 h; 30 °C; YPD
Procedure, shortened: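 The entry is percent growth inhibition of drug-sensitive S. cerevisiae ABC16-Green Monster cells. After overnight growth in YPD at 30 °C, cells were diluted to OD600 0.1–0.2 and exposed to each library compound at 150 µM in 200 µl per well, in biological duplicates with untreated cultures beside them, and OD600 was read at 0 h and after 18 h at 30 °C. Any compound under 70% in both replicates was not carried to dose-response.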

Row | SMILES | growth inhibition at single dose [%]
1 | COc1cccc(C(=O)NC(c2ccc(C)cc2)c2cc(Cl)c3cccnc3c2O)c1 (stereo not drawn) | < 70
2 | COc1ccc(C(=O)Nc2ccc3nc(N4CCCCC4)cc(C)c3c2)cc1OC | < 70
3 | O=C(c1ccc(NCCO)cc1)C1C[C@H]1c1ccc(Cl)cc1 (stereo partly drawn) | < 70
4 | COc1cccc(OC)c1C(=O)Nc1ccc(Cl)c(-c2nc3ccccc3s2)c1 | < 70
5 | COCc1[nH]n2c3cccc(=O)c-3nnc2c1-c1ccccc1 | < 70
6 | CCCCc1ccc(NC(=O)Nc2ccc(O[C@H]3CCCC[C@@H]3N(C)c3ccccc3)c(F)c2)cc1 | < 70
7 | Cc1nn2c(=O)c(Cc3ccccc3)c(C)[nH]c2c1-c1ccc(F)cc1 | < 70
8 | CNc1snc(C)c1C(=O)NCc1ccc(COCC(F)(F)F)cc1 | < 70
9 | COc1ccc(-c2c(C)nn3c(NCc4ccccn4)cc(C)nc23)cc1OC | < 70
10 | CCOC(=O)c1cnc2c(CC)cccc2c1O | < 70
11 | Cc1cc(-c2nc(=O)c3ccccc3[nH]2)c(C)n1CC(C)C | < 70
12 | CCN(CC)S(=O)(=O)c1ccc(Cl)c(C(=O)Nc2ccc3nc(C)sc3c2)c1 | < 70
13 | Cc1ccccc1C(=O)N1N=C(Nc2ccccc2)SC1(C)C | < 70
14 | COc1ccc(CCNC(=O)c2cc(S(=O)(=O)N3CC(C)CC(C)C3)ccc2Sc2ccc(F)cc2)cc1OC (stereo not drawn) | < 70
15 | COc1ccc(C(C)=O)cc1N1C(=O)C2C(C1=O)C1(c3ccccc3)C(=O)C2(c2ccccc2)C(c2ccc(C)cc2)=C1c1ccc(C)cc1 (stereo not drawn) | < 70
16 | CN(Cc1ccccc1)S(=O)(=O)c1ccc(Cl)c(C(=O)Nc2nnc(C(F)(F)F)[nH]2)c1 | < 70
17 | CNC(=O)C1Cc2c([nH]c3cc(Cl)ccc23)C2(CCN(CCc3ccccc3)CC2)N1 (stereo not drawn) | < 70
18 | N#Cc1ccc(Cc2cnc(NC(=O)c3ccc4ncsc4c3)s2)cc1 | < 70
19 | O=C(NCCCN1CCC(N2CCCCC2)CC1)C1=Cc2cc(Br)ccc2OC1 | < 70
20 | Cc1nn(-c2ccccc2)c(Oc2ccccc2)c1/C=C1\C(=O)Nc2ccccc21 | < 70
21 | COc1nc(Nc2ccc(C(C)C)cc2)nc(OC)n1 | < 70

Row | SMILES | growth inhibition at single dose [%]
22 | COc1cc2c(cc1OC)C1=NNC(=O)C1=NC(C)(C)C2 | < 70
23 | COc1nc2ccc(Br)cc2cc1[C@@H](c1ccccc1)[C@@](O)(CCN(C)C)c1cccc2ccccc12 | < 70
24 | O=C(c1ccc(F)cc1)N(CCNc1ccccc1)c1ccccc1 | < 70
25 | CCc1ccc(S(=O)(=O)Nc2cc(CN3CCN(CCC(C)C)CC3)ccc2C)cc1 | < 70
26 | O=C(Nc1cccc([N+](=O)[O-])c1)c1[nH]nc2ccccc12 | < 70
27 | Cc1cc2nc(NC(=O)C(C)(C)C)nc(Cl)c2n1Cc1ccc(Cl)cc1 | < 70
28 | O=C(Cn1ncc(Cl)c(Cl)c1=O)Nc1cc(S(=O)(=O)N2CCOCC2)ccc1Cl | < 70
29 | FC(F)(F)c1cc(NCCc2ccccc2)nc(-c2ccccn2)n1 | < 70
30 | CC(Nc1ncnc2sccc12)c1ccc(F)cc1 (stereo not drawn) | < 70
31 | c1ccc(Oc2ccc(-c3cc(N4CCOCC4)[nH]n3)cc2)cc1 | < 70
32 | O=C(NC1CCN(c2nccc(C(F)(F)F)n2)CC1)c1ccco1 | < 70
33 | CC(NC(=O)c1cccc(Nc2ncccn2)c1)c1cccc(C(F)(F)F)c1 (stereo not drawn) | < 70
34 | Cc1cc(C)n(-c2ccc(NC(=O)C3CCN(Cc4cnc(C)s4)CC3)cc2)n1 | < 70
35 | COc1ccc(C(=O)C2CC2c2ccc(Cl)cc2)cc1 (stereo not drawn) | < 70
36 | COc1ccc(-c2cc(NC(=O)c3ccc(F)cc3Cl)ccc2OC)cc1 | < 70
37 | COc1ccccc1CNC(=O)c1cc(C2CC2)nc2c1cnn2C(C)C | < 70
38 | COCC(C)Nc1ncnc2scc(-c3ccc(OC)cc3)c12 (stereo not drawn) | < 70
39 | O=C(CSc1nnc(C2CC2)o1)NCCC1=CCCCC1 | < 70
40 | Cc1ccccc1OCCSc1nc2ccc(NC(=O)c3cccs3)cc2s1 | < 70
41 | Cc1cc([N+](=O)[O-])cc(S(=O)(=O)N(Cc2ccc(C(=O)NC3CC3)cc2)C2CC2)c1C | < 70
42 | Oc1c(C(Nc2ccccn2)c2cccc(Oc3ccccc3)c2)ccc2cccnc12 (stereo not drawn) | < 70

Row | SMILES | growth inhibition at single dose [%]
43 | c1ccc(Oc2ccc(-c3cc(N4CCNCC4)[nH]n3)cc2)cc1 | < 70
44 | Cc1ccccc1OCCSc1nc2ccc(NC(=O)c3ccccc3)cc2s1 | < 70
45 | C[n+]1c2ccccc2nc2ccc(NCCO)cc21 | < 70
46 | NS(=O)(=O)c1cccc(-c2ccc3ncc(N4CCOCC4)nc3c2)c1 | < 70
47 | Cc1cc(=O)oc2c1ccc1oc(C(=O)c3ccccc3)c(C)c12 | < 70
48 | COc1ccc(-c2nonc2NC(=O)c2cccc(Cl)c2)cc1OC | < 70
49 | Brc1c(-c2ccc3c(c2)OCO3)nc2ncccn12 | < 70
50 | CCOc1ccc(OCC(=O)Nc2cc(C)cc(C)c2)cc1 | < 70
51 | O=C(NC1CCCC1)c1ccc(N2CCC(NCc3cccc(C(F)(F)F)c3)CC2)cc1 | < 70
52 | CCOC(=O)c1cnc2c(C)cccc2c1Nc1ccc(C(C)=O)cc1 | < 70
53 | CCOC(=O)N1CCC(N/C=C(\C#N)S(=O)(=O)c2ccc(Cl)cc2)CC1 | < 70
54 | CCOc1ccc2nc(C)cc(Nc3ccc(Br)cc3)c2c1 | < 70
55 | N#CCNC(=O)c1ccc(-c2ccnc(Nc3ccc(N4CCOCC4)cc3)n2)cc1 [Momelotinib] | < 70
56 | Cc1ccccc1-n1c(SCC(=O)NC2CCCCC2)nc(O)cc1=O | < 70
57 | O=C(Nc1ccc(N2CCCC2)cn1)c1cccc(F)c1 | < 70
58 | Cc1ccc(Sc2nc(-c3cccs3)ns2)cc1 | < 70
59 | Cc1nc(-c2ccc(CCNc3ncnc4sccc34)cc2)cs1 | < 70
60 | CCCCCCOC(=O)C1=C(C)NC(=O)NC1c1ccccc1F (stereo not drawn) | < 70
61 | Cc1cccc(Cn2ccc(NC(=O)c3ccc4c(c3)OCO4)n2)c1 | < 70
62 | CCOc1cc2c(cc1OCC)C(c1cc(OC)c(O)cc1Cl)NCC2 (stereo not drawn) | < 70
63 | Cc1cc(NC(=O)c2cccc(C(F)(F)F)c2)n(-c2nc(-c3ccc4c(c3)OCO4)cs2)n1 | < 70

Row | SMILES | growth inhibition at single dose [%]
64 | CC1CC(Nc2ccccc2)c2ccccc2N1S(=O)(=O)c1ccc(Br)cc1 (stereo not drawn) | < 70
65 | COc1ccc(CN2CCCC(C(=O)c3ccc(C(F)(F)F)cc3)C2)c(O)c1 (stereo not drawn) | < 70
66 | Cc1csc(SCC(=O)c2cc(C)n(-c3ccccc3)c2C)n1 | < 70
67 | O=C(NCc1ccco1)C1CCN(S(=O)(=O)c2ccc(Cl)cc2)CC1 | < 70
68 | Clc1cc(Br)ccc1-c1ccc(CNCC2CCNCC2)o1 | < 70
69 | COc1ccc(N2CCN(C(CNC(=O)CC(C)(C)C)c3ccc4c(c3)OCO4)CC2)cc1 (stereo not drawn) | < 70
70 | Cc1cc(N2CCCC2)nc(Nc2ccc(NC(=O)CCc3ccccc3)cc2)n1 | < 70
71 | Cc1cc(C(=O)COC(=O)c2[nH]nc3ccccc23)c(C)n1Cc1cccs1 | < 70
72 | O=C(CSc1ccc2nnc(-c3cccc(F)c3)n2n1)Nc1ccc2c(c1)OCO2 | < 70
73 | CCc1c(C)[nH]c2cc(-c3ccc(OC)cc3)nn2c1=O | < 70
74 | CCOc1c(Br)cc(C2C(C(=O)OC)=CN(C)C=C2C(=O)OC)cc1OC | < 70
75 | Cc1ccc(NC(=O)c2cc(C(C)(C)C)n(-c3ccccc3)c2C)cc1 | < 70
76 | Cc1ccc(-c2csc(Nc3ccccn3)n2)c(C)c1 | < 70
77 | O=C(CSc1nnc(/C=C/c2ccc(F)cc2)[nH]1)N(c1ccccc1)C1CCCCC1 | < 70
78 | COc1ccc(-n2ccnc2SCC(=O)Nc2cc(C)ccc2C)c(OC)c1 | < 70
79 | CN(C)S(=O)(=O)c1ccc2oc(SCC(=O)Nc3cc(C(C)(C)C)no3)nc2c1 | < 70
80 | Cc1ccc(Nc2nc(-c3ccccn3)cs2)cc1 | < 70
81 | COC(=O)c1ccc(Cl)c2c1C1C=CCC1C(c1cccc3ccccc13)N2 (stereo not drawn) | < 70
82 | Cc1ccc2c(CSc3nc(N)c(C#N)cc3C#N)cc(=O)oc2c1C | < 70
83 | NC(=O)c1cc(-c2ccsc2)ccc1OCCOc1ccccc1 | < 70
